Patent publication US8362256B2, “Salts of N-[4-(1-cyanocyclopentyl)phenyl]-2-(4-pyridylmethyl)amino-3-pyridinecarboxamide” (Jiangsu Hengrui Medicine Co. Ltd., priority 2008, dated 2013)
Marks after values point to notes of the source that are not given here.

Experiments:
human colon cancer HT-29 = experiment: Efficacy on human colon cancer HT-29 transplanted in nude mice; details: for Weight after Removing Tumor, d0 / TV x ± SD, d0: d0 baseline; for RTV x ± SD / T/C / TV x ± SD, dn: dn 21 days; for Weight after Removing Tumor, dn: dn 21 days after first administration
Experimental: BALB/cA-nude mice, ♀, 5-6 weeks-old, purchased from Shanghai Slaccas experimental animals limited liability company. […] Rearing environment: SPF grade.
(§1) After one week adaption, the experimental animals were subcutaneously inoculated with human colon cancer HT-29 tumor tissues. When the tumors grew to 100-300 mm^3, the animals were randomly divided into several groups. […] Volume of tumors and weight of mice were measured 2-3 times every week, the data of which were recorded. The equation for the calculation of volume of tumors (V) is: V=½×a×b^2 wherein a, b represent length and width, respectively.

Solubility = format: physicochemical
EGFR1 = EGFR1 (Homo sapiens, UniProt P00533); experiment: ELISA tyrosine kinase inhibition; format: biochemical
Experimental: (§2) Phosphorylation of substrate was determined with monoclonal antibody of anti-phosphorylation tyrosine (PY99). Goat anti-mouse IgG marked with HRP was then added, and the degree of phosphorylation of substrate was determined with OPD coloration. At the same time, the control group without tyrosine kinase and control wells of corresponding DMSO concentration were set up. 2 M of H2SO4 was added in 50 μl/well to terminate the reaction. Data was read with adjustable wavelength micro plate enzyme-labeling instrument VERSAmax (Sunnyvale, Calif., U.S.A.), followed by visualization reaction, OD490 nm value was then observed.
(§3) Relative inhibition rate of drugs on tyrosine kinase protein was determined.

Flt1 = Flt1 (Homo sapiens, UniProt P17948); experiment: ELISA tyrosine kinase inhibition; format: biochemical; details: average of 3 experiments; read-out: IC50 ± SD, Flt1
Experimental: as §2, §3

ErbB2 = ErbB2 (Homo sapiens, UniProt P04626); experiment: ELISA tyrosine kinase inhibition; format: biochemical
Experimental: as §2, §3

c-Src = c-Src (Homo sapiens, UniProt P12931); experiment: ELISA tyrosine kinase inhibition; format: biochemical; details: average of 3 experiments; read-out: IC50 ± SD, c-Src
Experimental: as §2, §3

FGFR1 = FGFR1 (Homo sapiens, UniProt P11362); experiment: ELISA tyrosine kinase inhibition; format: biochemical
Experimental: as §2, §3

PDGFRβ = PDGFRβ (Homo sapiens, UniProt P09619); experiment: ELISA tyrosine kinase inhibition; format: biochemical; details: average of 3 experiments; read-out: IC50 ± SD, PDGFRβ
Experimental: as §2, §3

[1] = Stability in different conditions, content by HPLC; format: physicochemical
[2] = tested on: human colon cancer Ls174t; experiment: Efficacy on human colon cancer Ls174t transplanted in nude mice; details: for Weight after Removing Tumor, d0 / TV x ± SD, d0: d0 baseline; for RTV x ± SD / T/C / TV x ± SD, dn: dn 14 days; for Weight after Removing Tumor, dn: dn 14 days after first administration
Experimental: BALB/cA-nude mice, ♀, 5-6 weeks-old, available from Shanghai Slaccas experimental animals limited liability company. […] Rearing environment: SPF grade.
as §1, with “Ls174t” for “HT-29”, “groups in day 0 (d0).” for “groups.”, “The volumes” for “Volume”, “the weights” for “weight”, “a and” for “a,”

c-Kit = c-Kit (Homo sapiens, UniProt P10721); experiment: ELISA tyrosine kinase inhibition; format: biochemical; details: average of 3 experiments; read-out: IC50 ± SD, c-Kit
Experimental: as §2, with “observed. […] Relative inhibition rate of drugs on tyrosine kinase protein was determined.” for “observed.”

KDR = KDR (Homo sapiens, UniProt P35968); experiment: ELISA tyrosine kinase inhibition; format: biochemical; details: average of 3 experiments; read-out: IC50 ± SD, KDR
Experimental: as §2, with “observed. […] Relative inhibition rate of drugs on tyrosine kinase protein was determined.” for “observed.”

[3] = 50 mg/kg p.o. once daily d0-d20
[4] = 100 mg/kg p.o. once daily d0-d20
[5] = 200 mg/kg p.o. once daily d0-d20
[6] = concentration increased to 10^4 nM
[7] = 50 mg/kg p.o. once daily d0-d13
[8] = 100 mg/kg p.o. once daily d0-d13
[9] = 200 mg/kg p.o. once daily d0-d13

Chain of EGFR1 (P00533 25-1210): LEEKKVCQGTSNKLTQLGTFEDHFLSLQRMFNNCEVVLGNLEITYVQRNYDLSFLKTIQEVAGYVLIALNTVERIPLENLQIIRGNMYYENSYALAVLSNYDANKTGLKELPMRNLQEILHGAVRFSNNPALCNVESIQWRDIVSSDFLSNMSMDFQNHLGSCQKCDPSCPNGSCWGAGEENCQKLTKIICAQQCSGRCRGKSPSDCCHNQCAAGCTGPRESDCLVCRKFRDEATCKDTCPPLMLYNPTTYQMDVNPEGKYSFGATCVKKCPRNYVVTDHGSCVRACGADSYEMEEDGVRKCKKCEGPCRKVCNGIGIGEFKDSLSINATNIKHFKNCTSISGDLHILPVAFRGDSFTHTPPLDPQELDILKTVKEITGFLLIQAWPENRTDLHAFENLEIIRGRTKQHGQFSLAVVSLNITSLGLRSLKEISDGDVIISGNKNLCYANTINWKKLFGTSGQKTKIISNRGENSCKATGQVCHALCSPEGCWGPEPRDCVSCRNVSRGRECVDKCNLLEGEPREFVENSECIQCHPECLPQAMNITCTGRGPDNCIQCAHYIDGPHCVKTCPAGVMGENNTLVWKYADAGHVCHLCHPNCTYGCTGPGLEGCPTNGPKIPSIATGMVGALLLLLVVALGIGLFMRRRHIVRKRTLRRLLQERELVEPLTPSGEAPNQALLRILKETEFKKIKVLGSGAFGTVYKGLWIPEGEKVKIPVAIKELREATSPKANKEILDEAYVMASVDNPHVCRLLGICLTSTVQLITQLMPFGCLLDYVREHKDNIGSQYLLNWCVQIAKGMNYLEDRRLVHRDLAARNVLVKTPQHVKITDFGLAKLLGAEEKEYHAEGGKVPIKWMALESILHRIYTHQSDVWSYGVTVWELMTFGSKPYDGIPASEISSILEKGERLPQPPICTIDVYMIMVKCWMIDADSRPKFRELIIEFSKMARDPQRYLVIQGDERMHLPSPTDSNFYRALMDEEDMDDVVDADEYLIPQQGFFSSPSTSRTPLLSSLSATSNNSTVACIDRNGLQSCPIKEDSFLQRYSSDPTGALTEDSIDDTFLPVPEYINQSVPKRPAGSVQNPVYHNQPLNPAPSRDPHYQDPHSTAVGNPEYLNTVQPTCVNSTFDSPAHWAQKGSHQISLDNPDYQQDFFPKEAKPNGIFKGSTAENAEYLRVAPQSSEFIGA
Chain of FGFR1 (P11362 22-822, species assumed): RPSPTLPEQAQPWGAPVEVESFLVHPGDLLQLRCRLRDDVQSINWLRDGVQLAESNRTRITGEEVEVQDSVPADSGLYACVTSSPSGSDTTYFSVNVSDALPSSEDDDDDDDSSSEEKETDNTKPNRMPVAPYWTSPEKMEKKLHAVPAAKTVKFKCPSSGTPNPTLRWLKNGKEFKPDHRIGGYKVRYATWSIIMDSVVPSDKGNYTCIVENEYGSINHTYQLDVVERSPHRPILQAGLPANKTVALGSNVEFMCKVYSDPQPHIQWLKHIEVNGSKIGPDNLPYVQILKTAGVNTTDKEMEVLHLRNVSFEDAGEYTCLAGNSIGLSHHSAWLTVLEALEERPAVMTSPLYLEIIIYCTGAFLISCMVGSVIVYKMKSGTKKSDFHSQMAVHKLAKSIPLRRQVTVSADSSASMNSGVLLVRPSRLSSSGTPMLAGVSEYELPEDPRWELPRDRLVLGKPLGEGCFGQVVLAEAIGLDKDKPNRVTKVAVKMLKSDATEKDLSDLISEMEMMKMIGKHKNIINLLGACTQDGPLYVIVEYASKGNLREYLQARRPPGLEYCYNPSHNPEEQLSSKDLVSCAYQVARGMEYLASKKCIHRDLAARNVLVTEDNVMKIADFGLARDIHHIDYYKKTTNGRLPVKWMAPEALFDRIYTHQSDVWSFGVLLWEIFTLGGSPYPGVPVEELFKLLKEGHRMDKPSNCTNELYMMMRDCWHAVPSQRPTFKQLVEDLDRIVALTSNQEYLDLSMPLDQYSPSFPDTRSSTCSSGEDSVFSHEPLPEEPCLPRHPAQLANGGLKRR
Chain of ErbB2 (P04626 23-1255, species assumed): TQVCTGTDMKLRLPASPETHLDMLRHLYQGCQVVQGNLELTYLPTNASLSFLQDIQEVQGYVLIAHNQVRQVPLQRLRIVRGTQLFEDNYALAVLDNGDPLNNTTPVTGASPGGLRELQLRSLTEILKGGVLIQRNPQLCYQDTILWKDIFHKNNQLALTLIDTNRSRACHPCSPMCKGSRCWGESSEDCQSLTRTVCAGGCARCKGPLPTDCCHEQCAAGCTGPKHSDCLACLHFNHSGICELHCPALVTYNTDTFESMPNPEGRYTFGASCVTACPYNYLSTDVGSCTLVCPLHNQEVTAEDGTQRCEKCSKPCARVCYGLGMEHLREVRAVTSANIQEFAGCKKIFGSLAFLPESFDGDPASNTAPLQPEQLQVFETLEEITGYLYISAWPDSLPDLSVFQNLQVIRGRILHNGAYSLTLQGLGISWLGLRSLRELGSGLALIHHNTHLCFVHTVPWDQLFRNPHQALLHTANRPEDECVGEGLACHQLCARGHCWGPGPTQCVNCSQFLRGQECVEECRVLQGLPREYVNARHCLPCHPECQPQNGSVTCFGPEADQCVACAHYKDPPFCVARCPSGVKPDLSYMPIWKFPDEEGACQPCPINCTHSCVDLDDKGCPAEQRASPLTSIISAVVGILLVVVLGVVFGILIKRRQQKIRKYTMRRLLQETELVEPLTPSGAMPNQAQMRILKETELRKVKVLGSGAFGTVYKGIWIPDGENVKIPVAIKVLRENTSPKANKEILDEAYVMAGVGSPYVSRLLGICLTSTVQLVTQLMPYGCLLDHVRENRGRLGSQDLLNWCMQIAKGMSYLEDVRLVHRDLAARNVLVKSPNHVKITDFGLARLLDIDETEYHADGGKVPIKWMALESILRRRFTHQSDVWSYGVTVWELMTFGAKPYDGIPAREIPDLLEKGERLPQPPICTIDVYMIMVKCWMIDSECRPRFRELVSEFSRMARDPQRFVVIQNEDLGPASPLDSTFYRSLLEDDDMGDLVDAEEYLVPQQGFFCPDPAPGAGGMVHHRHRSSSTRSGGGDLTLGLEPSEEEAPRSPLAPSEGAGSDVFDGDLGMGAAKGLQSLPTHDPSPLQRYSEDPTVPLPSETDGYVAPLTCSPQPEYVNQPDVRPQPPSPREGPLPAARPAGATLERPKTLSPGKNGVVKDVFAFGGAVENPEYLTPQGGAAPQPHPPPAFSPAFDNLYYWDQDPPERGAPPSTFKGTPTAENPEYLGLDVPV
Chain of c-Src (P12931 whole entry, species assumed): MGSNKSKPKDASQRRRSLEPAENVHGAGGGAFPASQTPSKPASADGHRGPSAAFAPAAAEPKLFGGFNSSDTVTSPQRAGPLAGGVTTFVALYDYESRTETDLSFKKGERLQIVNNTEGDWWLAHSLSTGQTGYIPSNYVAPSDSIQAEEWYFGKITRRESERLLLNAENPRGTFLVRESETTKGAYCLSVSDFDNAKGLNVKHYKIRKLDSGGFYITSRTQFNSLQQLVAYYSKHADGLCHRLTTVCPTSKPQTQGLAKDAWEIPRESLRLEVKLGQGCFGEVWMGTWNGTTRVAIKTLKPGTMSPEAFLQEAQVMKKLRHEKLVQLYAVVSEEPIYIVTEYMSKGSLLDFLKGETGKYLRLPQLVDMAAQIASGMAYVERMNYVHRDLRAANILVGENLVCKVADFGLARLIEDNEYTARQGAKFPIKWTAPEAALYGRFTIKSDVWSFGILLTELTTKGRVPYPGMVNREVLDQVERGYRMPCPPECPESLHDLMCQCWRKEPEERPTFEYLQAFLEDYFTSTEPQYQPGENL
Chain of PDGFRβ (P09619 33-1106, species assumed): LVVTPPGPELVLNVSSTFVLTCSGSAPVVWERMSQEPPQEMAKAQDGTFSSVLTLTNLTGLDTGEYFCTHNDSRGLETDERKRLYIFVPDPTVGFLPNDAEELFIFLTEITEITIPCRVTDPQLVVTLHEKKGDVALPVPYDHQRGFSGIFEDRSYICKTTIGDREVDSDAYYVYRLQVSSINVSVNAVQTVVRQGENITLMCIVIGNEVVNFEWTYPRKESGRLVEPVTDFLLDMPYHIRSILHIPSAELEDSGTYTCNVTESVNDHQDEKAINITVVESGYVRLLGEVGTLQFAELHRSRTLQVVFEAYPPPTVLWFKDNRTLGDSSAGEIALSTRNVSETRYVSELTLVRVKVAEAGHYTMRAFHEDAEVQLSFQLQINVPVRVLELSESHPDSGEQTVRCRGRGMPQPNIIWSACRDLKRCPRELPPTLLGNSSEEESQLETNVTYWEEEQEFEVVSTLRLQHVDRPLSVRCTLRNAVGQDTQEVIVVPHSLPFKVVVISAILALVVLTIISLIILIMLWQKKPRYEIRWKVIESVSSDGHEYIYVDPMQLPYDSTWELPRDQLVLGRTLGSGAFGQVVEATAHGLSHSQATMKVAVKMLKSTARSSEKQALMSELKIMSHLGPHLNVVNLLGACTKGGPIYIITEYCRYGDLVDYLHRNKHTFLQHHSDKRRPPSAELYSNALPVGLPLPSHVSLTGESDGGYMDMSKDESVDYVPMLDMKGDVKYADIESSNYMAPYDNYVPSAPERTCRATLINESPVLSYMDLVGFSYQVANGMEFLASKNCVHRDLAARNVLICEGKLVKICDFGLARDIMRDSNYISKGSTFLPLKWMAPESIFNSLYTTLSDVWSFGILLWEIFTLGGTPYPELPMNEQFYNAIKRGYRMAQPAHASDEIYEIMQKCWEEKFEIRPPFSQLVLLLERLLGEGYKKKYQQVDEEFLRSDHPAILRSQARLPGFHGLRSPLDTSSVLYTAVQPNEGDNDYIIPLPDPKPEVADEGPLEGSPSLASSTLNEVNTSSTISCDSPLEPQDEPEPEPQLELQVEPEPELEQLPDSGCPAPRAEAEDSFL

## N#CC1(c2ccc(NC(=O)c3cccnc3NCc3ccncc3)cc2)CCCC1 [Mesylate of compound A]
Human colon cancer HT-29; [3]
  Weight after Removing Tumor, d0: 16.1 g
  RTV x ± SD: 5.42 ± 1.55
  T/C: 62.5%
  TV x ± SD, dn: 1250 ± 256
  Weight after Removing Tumor, dn: 14.3 g
Human colon cancer HT-29; 50 mg/kg p.o.
  TV x ± SD, d0: 239 ± 49
Human colon cancer HT-29; [4]
  Weight after Removing Tumor, d0: 17.0 g
  RTV x ± SD: 3.78 ± 1.46
  T/C: 43.6^a %
  TV x ± SD, dn: 998 ± 296
  Weight after Removing Tumor, dn: 16.4 g
Human colon cancer HT-29; 100 mg/kg p.o.
  TV x ± SD, d0: 272 ± 37
Human colon cancer HT-29; [5]
  Weight after Removing Tumor, d0: 16.3 g
  RTV x ± SD: 2.21 ± 0.52
  T/C: 25.5^a %
  TV x ± SD, dn: 571 ± 147
  Weight after Removing Tumor, dn: 15.6 g
Human colon cancer HT-29; 200 mg/kg p.o. once daily d0-d20, listed as mesylate of compound A
  T/C: 25.5%
Human colon cancer HT-29; 200 mg/kg p.o.
  TV x ± SD, d0: 260 ± 39
Human colon cancer HT-29; mouse, in vivo, po
  tolerance: well tolerated
Solubility
  Solubility in water: Insoluble
EGFR1; average of 3 experiments, read-out: IC50 ± SD, EGFR1
  IC50: > 10000 nM
EGFR1; [6]
  inhibition on EGFR1: no inhibition
Flt1
  IC50: 70.1 nM
ErbB2; average of 3 experiments, read-out: IC50 ± SD, ErbB2
  IC50: > 10000 nM
ErbB2; [6]
  inhibition on ErbB2: no inhibition
c-Src
  IC50: 349 nM
FGFR1; average of 3 experiments, read-out: IC50 ± SD, FGFR1
  IC50: > 10000 nM
FGFR1; [6]
  inhibition on FGFR1: no inhibition
PDGFRβ
  IC50: 537 nM
[1]
  stability (conclusion of stability experiments): most stable
[1]; HPLC, initial purity 99.6%
  content after 6 Months Under Light: 99.5%
  content after 6 Months at 60° C.: 98.4%
  content after 6 Months at Room Temperature: 99.5%
[2]; [7]
  Weight after Removing Tumor, d0: 19.1 g
  RTV x ± SD: 9.8 ± 3.0
  T/C: 79.7%
  TV x ± SD, dn: 1452 ± 149
  Weight after Removing Tumor, dn: 16.8 g
[2]; 50 mg/kg p.o.
  TV x ± SD, d0: 155 ± 33
[2]; [8]
  Weight after Removing Tumor, d0: 19.0 g
  RTV x ± SD: 6.4 ± 3.1
  T/C: 52.0^a %
  TV x ± SD, dn: 931 ± 196
  Weight after Removing Tumor, dn: 18.5 g
[2]; 100 mg/kg p.o.
  TV x ± SD, d0: 161 ± 44
[2]; [9]
  Weight after Removing Tumor, d0: 18.6 g
  RTV x ± SD: 2.0 ± 0.9
  TV x ± SD, dn: 310 ± 114
  Weight after Removing Tumor, dn: 18.5 g
[2]; 200 mg/kg p.o. once daily d0-d13, listed as Mesylate of Compound A
  T/C: 16.3^a %
[2]; 200 mg/kg p.o. once daily d0-d13, listed as mesylate of compound A
  T/C: 16.3%
[2]; 200 mg/kg p.o.
  TV x ± SD, d0: 158 ± 20
[2]; 400 mg/kg
  efficacy at 400 mg/kg: did not increase significantly
[2]; Mus musculus, LS174T, read-out: ED50 on colon cancer Ls174t
  ED50: 97.2 mg/kg
[2]; mouse, in vivo
  tolerance at 400 mg/kg: could be tolerated by mice
c-Kit
  IC50: 420 nM
KDR
  IC50: 2.43 nM
